Our source for the melting point values is a melting point compilation (Tetko et al.).

What is called melting point is the temperature, or range, at which the solid turns liquid.

The structures appear in SMILES notation.

Take `Cc1nc(N)nc(O)c1Br`: the melting point lay within 244 to 246 °C.
Compound `ICCc1ccc(CCI)cc1` returned a melting point of 111 °C.
The compound `C=CCOc1c(Cc2cc(C(C)=O)c(O)c(C)c2OCC=C)cc(C(C)=O)c(O)c1C` yielded a melting point of 143 °C.
The same measure for `O=C(c1ccc(Br)cc1)c1[nH]c2c(c1O)C(c1ccc(Br)cc1)c1c(c3ccccc3oc1=O)O2` (stereo not drawn): 230 °C; for `O=[N+]([O-])c1cccc(S(=O)(=O)NCCNS(=O)(=O)c2cccc([N+](=O)[O-])c2)c1`: 190 °C.
The result for `CSCCC(NC(=O)c1ccc(C(F)(F)F)cc1)C(=O)NN` (stereo not drawn) reads 181 to 184 °C; that for `CC(=O)c1ccc(S(C)(=O)=O)cc1`, 129 to 131 °C; that for `O=c1c(O)c(-c2ccc(O)cc2)oc2cc(O)cc(O)c12`, 277 °C.
On to `COc1ccccc1-c1ccc(C=C2C(=O)OC(C)(C)OC2=O)o1`, for which the melting point came to 147 °C.
The same measure for `O=C1c2ccccc2C(=O)c2c(Br)cccc21`: 186 °C.
`O=S(=O)(Cl)c1ccc(S(=O)(=O)N2CCCC2)cc1` displayed a melting point of 133 to 134 °C.
The same measure for `CC(C)(C)OC(=O)CC(=O)OC(C)(C)C`: -6 °C; for `O=C1c2ccccc2C(=O)N1CCCCCBr`: 60 °C; for `Cc1nn(C)c(Cl)c1C=O`: 78 to 79 °C.
The same measure for `Cc1ccc(-c2ccc(C=CC(=O)c3ccccc3)o2)cc1`: 100 to 101 °C.
For `Cc1nn(Cc2ccccc2)c(N)c1C#N`, the melting point was determined as 78 °C.
`CC(C(=O)Nc1ccc(F)c(Cl)c1)(C(F)(F)F)C(F)(F)F` registered a melting point of 72 °C.
`Nc1cc(Cl)c(S(N)(=O)=O)cc1S(N)(=O)=O` registered a melting point of 254 °C.
In the case of `CCOC(=O)C1CCN(Cc2cccc(N)c2)CC1`, the melting point was 42 to 46 °C.
The same measure for `CC1(C)C(=O)N(Br)C(=O)N1Cl`: 164 °C.
The same measure for `COc1ccc(C(=CCC(=O)O)C(C)(C)C(=O)O)cc1`: 137 °C; for `CCCCCCCCc1ccc(/N=N/c2ccc(OC(=O)CCCCCCC)cc2)cc1`: 58 to 63 °C.
The same measure for `NS(=O)(=O)c1cc2c(s1)SCCC2=O`: 222 °C; for `COc1nsc(Nc2ccc(Br)cc2)n1`: 237 to 239 °C.
Take `Brc1ccc2nccn2c1`: the melting point lay within 76 to 78 °C.
As to `O=C(O)Cc1c[nH]c2ccc(Br)cc12`, the melting point was in the range of 141 to 148 °C.
`c1ccc2c(-c3nnc(-c4cccc5ccccc45)o3)cccc2c1` yielded a melting point of 177 °C.
The same measure for `C[Si](C)(C)C#Cc1cccc(C#C[Si](C)(C)C)c1`: 58 °C; for `NC(=O)c1cc(F)ccc1F`: 114 to 116 °C; for `CCC(C)[C@@H]1NC(=O)OC1=O` (stereo partly drawn): 66 °C.
The same measure for `CC1CCC2C(C)(C)C3CC12CCC3(C)O` (stereo not drawn): 86 °C.
The result for `CCCCC(O)C(=O)O` (stereo not drawn) reads 61 °C; that for `CC1(C)C(C=Cc2cc([N+](=O)[O-])cc([N+](=O)[O-])c2[O-])=[N+](Cc2ccccc2)c2ccccc21`, 244 to 246 °C; that for `NC(=O)c1ccc(C(F)(F)F)nc1O`, 220 to 223 °C.
Regarding `CON=O`, the melting point is -16 °C.
As for `Cc1nn(C)c(C)c1I`, the melting point lay in the range of 72 to 74 °C.
In turn, `CCCNC(=O)C(C(F)(F)F)C(F)(F)F` displayed a melting point of 105 to 107 °C.
The same measure for `Nc1csc2nccnc12`: 88 to 89 °C; for `CCOc1ccc(-c2nnc3n2NC(c2ccc(O)c(OC)c2)S3)cc1` (stereo not drawn): 133 °C.
The same measure for `OCC1OC(OCC2OC(O)C(O)C(O)C2O)C(O)C(O)C1O` (stereo not drawn): 86 °C; for `NC(=S)C1=Cc2ccccc2OC1`: 172 to 174 °C; for `CC(C)(C)C(=O)Nc1ccc2nn(C3CCCC3)nc2c1`: 136 °C.
The same measure for `C(#Cc1ccc(CCc2ccccc2)cc1)c1ccccc1`: 105 °C; for `CCOC(=O)c1c(C)cc(O)nc1O`: 219 °C; for `OCc1ccco1`: -14.6 °C.
As to `CC1=CCC(=O)O1`, the melting point was determined as 18 °C.
The same measure for `OCCOc1ccccc1OCCO`: 78 to 82 °C; for `Cc1nn(C)c(C)c1C(=O)O`: 218 to 219 °C.
For `CCCCCCCCCCCCCCCC1CCCCC1`, the melting point is 29 °C.
The result for `CN(c1c(F)c(F)c(C#N)c(F)c1F)N(O)O` reads 53 °C; that for `Oc1ccc(C2SCCS2)cc1`, 118 °C; that for `C(C=C(c1ccccc1)c1ccccc1)=C(c1ccccc1)c1ccccc1`, 198 °C.
Consider `Brc1ccc(Cn2ccnc2)cc1`, for which the melting point lay in the range of 75 to 80 °C.
The compound `Nc1ccc(-c2cccs2)nc1` had a melting point of 144 to 145 °C.
The same measure for `O=C(CI)NCCNc1cccc2c(S(=O)(=O)O)cccc12`: 300 °C; for `CCCCC(C)C(C)C` (stereo not drawn): -116 °C; for `C=CC(C)(C)C(=O)O`: -6 °C.
The same measure for `O=C(Cc1ccccc1)OCc1c([N+](=O)[O-])cccc1[N+](=O)[O-]`: 90 °C; for `NC(=O)c1ccccc1CO`: 150 °C.
The same measure for `Nc1ccc(C(=O)O)nc1`: 218 °C; for `CCN(CC)CCNc1ccc(C)c2sc3ccccc3c(=O)c12`: 64.5 °C.
`CCCCCCCCCCCCCCCCCC1CCCCC1`: the melting point was 38 °C.
`N#Cc1ccccc1N1CCCCC1` displayed a melting point of 45 to 48 °C.
In turn, `O=C(O)c1cc(Br)c(O)c(Br)c1` came in with a melting point of 271 to 274 °C.
In the case of `O=C(c1ccco1)N1CCNCC1`, the melting point was 68 °C.
The same measure for `CCCCCC(N)=O`: 101 °C; for `O=C(O)C=Cc1cccc(OC(F)(F)F)c1`: 93 to 96 °C; for `COC(=O)C1(Br)CCC(Br)(C(=O)OC)CC1` (stereo not drawn): 148 to 150 °C.
The result for `Cc1ccc([N+](=O)[O-])c(I)c1` reads 18 to 20 °C; that for `O=c1c2ccccc2cc2n1CCc1ccccc1-2`, 101 °C.
The result for `CCCCNC(=O)NCCCC` reads 74 to 75 °C.
`COc1ccccc1/N=N/c1c(N)nn2c(C(F)(F)F)cc(=O)[nH]c12` yielded a melting point of 295 °C.
The same measure for `O=C(Nc1cc(O)cc(C(=O)O)c1)OCC1c2ccccc2-c2ccccc21`: 234 to 236 °C; for `COc1ccc2c(CBr)cc(=O)oc2c1`: 212 to 217 °C; for `COc1nc(Cl)nc(OC)n1`: 77 °C.
The same measure for `O=C(O)c1ccc(-c2cccs2)s1`: 177 to 178 °C.
The result for `Nc1cnccc1C(=O)O` reads 287 to 291 °C; that for `N#CCS(=O)(=O)c1ccc(Cl)cc1`, 171 °C; that for `COc1ccc(Br)c2c1C(=O)C2`, 74 °C.
`O=C(O)c1ccnc(N2CCCC2)c1`: the melting point lay within 211 to 212 °C.
The same measure for `COc1cc(C=CC(=O)O)cc(OC)c1`: 173 to 176 °C.
The result for `Cc1ccc(CNC(=O)c2cc([N+](=O)[O-])cc([N+](=O)[O-])c2)c(C)c1` reads 180 °C.
In turn, `Cc1ccc(C(O)c2cc(C)ccc2O)cc1` (stereo not drawn) gave a melting point of 98 °C.
The same measure for `CCCCCCCCCCCCCCCCOCCOCCOCCOCCOCCOCCOCCOCCOCCOCCOCCOCCOCCOCCOCCOCCOCCOCCOCCOCCO`: 35.4 to 39.6 °C; for `OC1CC(O)C(O)CO1` (stereo not drawn): 69 to 72 °C.
The result for `CCOC(=O)C(C(N)=S)=C1NN=C(c2ccc(Cl)cc2)O1` reads 174 to 177 °C; that for `N#Cc1csc2ccc(Cl)cc12`, 121 to 122 °C.
The same measure for `N#Cc1c(Cl)c(Cl)c(Cl)c(C#N)c1Cl`: 252 °C.
Compound `Nc1cc(Br)cnc1N` had a melting point of 160 to 165 °C.
The result for `Cc1ccc2nc(C)[nH]c2c1` reads 203 °C; that for `CC1=C(C(=O)OCc2ccccc2)C(c2ccccc2)NC(=S)N1` (stereo not drawn), 175 °C.
The same measure for `Cc1ccc([C@@H]2CC(=O)[C@@H](c3ccccc3)[C@H](c3ccc(C)cc3)N2)cc1`: 148 °C; for `CCCCCCCCCCC=CCCCCCCCC(=O)O`: 23 °C.
`OCc1cc(OCc2ccccc2)cc(OCc2ccccc2)c1`: the melting point lay within 78 to 82 °C.
The result for `OCC1Cc2ccccc2N1` (stereo not drawn) reads 49 to 58 °C.
Regarding `CCOP(=S)(OCC)ON=C(C#N)c1ccccc1`, the melting point was determined as 6.1 °C.
Compound `NS(=O)(=O)c1cccc(Cl)c1` displayed a melting point of 146 °C.
The compound `C=CC(=O)Nc1ccc2c(c1)OCCOCCOCCOCCOCCO2` registered a melting point of 108 to 112 °C.
The same measure for `Cn1c(S)nnc1-c1ccccc1`: 188 °C.
With `COc1ccc(C(=O)Cl)cc1OC1CCCC1`, the melting point is 46 to 47 °C.
In turn, `Cn1ccc(-c2cccc(C(=O)O)c2)n1` had a melting point of 167 to 169 °C.
The same measure for `COc1ccc(-c2cc(=O)c3c(O)c(OC)c(OC)cc3o2)cc1O`: 191 °C; for `CCCc1cc(C(C)=O)c(O)cc1O`: 99 to 101 °C.
The result for `Cc1onc(-c2c(F)cccc2Cl)c1C(=O)Cl` reads 51 °C; that for `O=C1c2ccccc2C(=O)N1c1nc2ccccc2[nH]1`, 272 to 275 °C.
The same measure for `CSc1nc(N)cc(Cl)n1`: 130 to 134 °C; for `CCCC(O)C1(C)CCC(C(=O)O)C(C)(C)O1` (stereo not drawn): 179 °C.
For the compound `FC(F)(F)C#CC(F)(F)F`, the melting point was -117 °C.
Regarding `Cc1cc(C(F)(F)F)cc(NN)n1`, the melting point was 79 to 81 °C.
For the compound `Cc1cc(Br)cnc1Cl`, the melting point lay within 40 to 44 °C.
Compound `COC(=O)c1ccc(C)nc1` returned a melting point of 34 to 37 °C.
The same measure for `COC(=O)C(CCSC)NC(=O)c1ccc(C(F)(F)F)cc1` (stereo not drawn): 94 to 96 °C; for `NS(=O)(=O)c1ccc(S(=O)(=O)CCO)cc1`: 165 °C.
